Reference: ChEMBL document CHEMBL4396935, “l-like 3-deazaneplanocin analogues: Synthesis and antiviral properties” (Bioorg Med Chem Lett, 2019)
Values after ≈ are worked out from the molar mass of the structure shown. Active and inactive are the calls of the source. No cut-off for these calls is given here.

Columns and labels:
[1] = test system: Ebolavirus; assay: Antiviral activity against Ebolavirus infected in African green monkey Vero cells by immunofluorescent assay; type: functional, organism-based; details: for EC50: Orthoebolavirus
[2] = test system: Tacaribe virus; assay: Antiviral activity against Tacaribe virus infected in African green monkey Vero cells assessed as reduction in virus induced cytopathic effect; type: functional, organism-based; details: Mammarenavirus tacaribeense
[3] = test system: Pichinde virus; assay: Antiviral activity against Pichinde virus infected in African green monkey Vero cells assessed as reduction in virus induced cytopathic effect; type: functional, organism-based
[4] = test system: Human adenovirus 5; assay: Antiviral activity against Human adenovirus 5; type: functional, organism-based
[5] = test system: Chikungunya virus; assay: Antiviral activity against Chikungunya virus; type: functional, organism-based
[6] = test system: West Nile virus; assay: Antiviral activity against West Nile virus; type: functional, organism-based
[7] = test system: Japanese encephalitis virus; assay: Antiviral activity against Japanese encephalitis virus; type: functional, organism-based
[8] = test system: Rift Valley fever virus; assay: Antiviral activity against Rift Valley fever virus; type: functional, organism-based
[9] = test system: Lassa virus; assay: Antiviral activity against Lassa virus; type: functional, organism-based; details: Mammarenavirus lassaense
[10] = test system: H1N1 subtype; assay: Antiviral activity against Influenza A virus (H1N1); type: functional
[11] = test system: Venezuelan equine encephalitis virus; assay: Antiviral activity against Venezuelan equine encephalitis virus; type: functional, organism-based
[12] = test system: Human betaherpesvirus 5; assay: Antiviral activity against human cytomegalovirus; type: functional, organism-based
[13] = test system: Junin virus; assay: Antiviral activity against Junin virus; type: functional, organism-based; details: Mammarenavirus juninense
[14] = test system: Yellow fever virus; assay: Antiviral activity against Yellow fever virus; type: functional, organism-based
[15] = test system: Zika virus; assay: Antiviral activity against Zika virus; type: functional, organism-based
[16] = test system: Punta Toro virus; assay: Antiviral activity against Punta Toro virus; type: functional, organism-based
[17] = Cytotoxicity against African green monkey Vero cells; type: cell-based; details: chlorocebus sabaeus

Structure (SMILES)	EC50 [1]	EC50 [2]	EC50 [3]	Activity [4]	Activity [5]	Activity [6]	Activity [7]	Activity [8]	Activity [9]	Activity [2]	Activity [10]	Activity [11]	Activity [12]	Activity [13]	Activity [14]	Activity [15]	Activity [1]	Activity [16]	Activity [3]	CC50 [17]
NC(=O)c1nc(F)cnc1O [FAVIPIRAVIR]	18.6 µg/mL (≈ 118 µM)	–	–	–	–	–	–	–	–	–	–	–	–	–	–	–	–	–	–	–
NC(=O)c1ncn([C@@H]2O[C@H](CO)[C@@H](O)[C@H]2O)n1 [RIBAVIRIN]	–	9.3 µg/mL (≈ 38.1 µM)	12 µg/mL (≈ 49.1 µM)	–	–	–	–	–	–	–	–	–	–	–	–	–	–	–	–	–
Nc1nccc2c1ncn2[C@H]1C=C(CF)[C@H](O)[C@@H]1O	–	–	–	inactive	inactive	inactive	inactive	inactive	inactive	inactive	inactive	inactive	inactive	inactive	inactive	inactive	inactive	inactive	inactive	–
Nc1ncc(Br)c2c1ncn2[C@H]1C=C(CO)[C@H](O)[C@@H]1O	4.2 µg/mL (≈ 12.3 µM)	> 100 µg/mL	> 100 µg/mL	inactive	inactive	–	inactive	–	inactive	–	inactive	–	inactive	inactive	–	–	–	–	–	83 to 100 µg/mL (≈ 243 to 293 µM)
Nc1nccc2c1ncn2[C@H]1C=C(CO)[C@H](O)[C@@H]1O	8.7 µg/mL (≈ 33.2 µM)	1.3 µg/mL (≈ 4.96 µM)	0.9 µg/mL (≈ 3.43 µM)	inactive	inactive	–	inactive	–	inactive	–	inactive	–	inactive	inactive	–	–	–	–	–	12 to 85 µg/mL (≈ 45.8 to 324 µM)
